Values after ≈ are worked out from the molar mass of the structure shown.
Legend:
[1] = tested on: HeLa; test: Cell-killing activity; format: cell-based; settings: Homo sapiens; HeLa cells; read-out: ID50 (concentration at which 50% of cancer cells are killed)
[2] = Solubility; format: physicochemical
[3] = tested on: Pyricularia oryzae IFO 5994; test: microbe, parasite or virus in culture; format: cell-based; settings: IFO5994, read-out: Inhibition Circle
[4] = tested on: KB; test: Cell-killing activity; format: cell-based; settings: Homo sapiens; KB cells; read-out: ID50 (concentration at which 50% of cancer cells are killed)
[5] = tested on: Chlorella vulgaris; format: cell-based; settings: 20 μg/disc (diameter 8 mm), read-out: Inhibition Circle
Description: (§1) The value in paretheses in the table denotes a partial inhibition.

[6] = tested on: Escherichia coli AB 1157; format: cell-based; settings: AB1157, 20 μg/disc (diameter 8 mm), read-out: Inhibition Circle
Description: as §1

[7] = tested on: Alternaria mali IFO 8984; format: cell-based; settings: IFO8984, 20 μg/disc (diameter 8 mm), read-out: Inhibition Circle
Description: as §1

[8] = tested on: Escherichia coli BE 1186; format: cell-based; settings: BE1186, 20 μg/disc (diameter 8 mm), read-out: Inhibition Circle
Description: as §1

[9] = tested on: Candida albicans IFO 1594; format: cell-based; settings: IFO1594, 20 μg/disc (diameter 8 mm), read-out: Inhibition Circle
Description: as §1

[10] = tested on: Colletotrichum lagenarium IFO 7513; format: cell-based; settings: Colletotrichum orbiculare, IFO7513; 20 μg/disc (diameter 8 mm); value in parentheses denotes a partial inhibition; read-out: Inhibition Circle
Description: as §1

[11] = tested on: Pseudomonas aeruginosa IFO 13130; format: cell-based; settings: IFO13130, 20 μg/disc (diameter 8 mm), read-out: Inhibition Circle
Description: as §1

Question: With `CC=C(C)C(O)C(C)C=C(C)C=CCC(C)=CCc1nc(OC)c(OC)c(OC2OC(C)C(O)C(O)C2O)c1C` (stereo not drawn) as the molecule, how does the IC50 [1] read?
Answer: 2.8 µg/mL (≈ 4.98 µM)

Question: What about the Solubility ([2]; chloroform, dimethyl sulfoxide, methanol, acetone) of the same molecule?
Answer: Soluble in chloroform, dimethyl sulfoxide, methanol and acetone

Question: What about the Solubility ([2]; n-hexane, water) of the same molecule?
Answer: Insoluble in n-hexane and water

Question: What about the zone of inhibition at 20 µg/disc [3] of the same molecule?
Answer: 19.1 mm

Question: What about the IC50 [4] of the same molecule?
Answer: 0.74 µg/mL (≈ 1.32 µM)

Question: And the zone of inhibition at 20 µg/disc [5]?
Answer: 0 mm

Question: What about the zone of inhibition at 20 µg/disc [6] of the same molecule?
Answer: 0 mm

Question: What about the zone of inhibition at 20 µg/disc [7] of the same molecule?
Answer: 0 mm

Question: And the zone of inhibition at 20 µg/disc [8]?
Answer: 0 mm

Question: And the zone of inhibition at 20 µg/disc [9]?
Answer: 0 mm

Question: And the zone of inhibition at 20 µg/disc [10]?
Answer: 13.3 mm

Question: And the zone of inhibition at 20 µg/disc [11]?
Answer: 0 mm
